pEC50: −log10 of the molar value.
These molecules were tested against human GPBAR1 receptor (Homo sapiens (Human), UniProt Q8TDU6) (assay: functional cAMP assay in CHO-dhfr(minus) cells expressing human GPBAR1 receptors). Details: CHO-dhfr(minus) cells expressing human GPBAR1, 30 min at 30° C.
Type: cell-based
Experimental: The final clone was verified by DNA sequence analysis. The plasmid was transfected into CHO cells deficient in dihydrofolate reductase activity (CHO-dhfr-) using Lipofectamine plus (Invitrogen). Clones were isolated in limited dilution conditions and identified by activities in the cAMP assay using lithocholic acid as agonist.
EC50 values were determined using Activity Base analysis (ID Business Solution, Limited). […] Specificity for GPBAR1 was tested in non-transfected CHO cells in the same assay as above.

Chain of human GPBAR1 receptor (Q8TDU6 whole entry): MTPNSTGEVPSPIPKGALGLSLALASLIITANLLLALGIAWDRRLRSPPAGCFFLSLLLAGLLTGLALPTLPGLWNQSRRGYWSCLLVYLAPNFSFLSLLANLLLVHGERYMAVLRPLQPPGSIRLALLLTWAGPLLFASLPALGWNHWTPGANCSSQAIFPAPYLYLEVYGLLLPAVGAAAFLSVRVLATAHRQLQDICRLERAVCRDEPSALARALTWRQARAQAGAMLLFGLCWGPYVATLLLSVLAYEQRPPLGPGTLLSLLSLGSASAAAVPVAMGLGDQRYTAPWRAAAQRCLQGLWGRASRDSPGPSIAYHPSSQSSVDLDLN

| SMILES | pEC50 |
| --- | --- |
| COc1cc(F)ccc1-c1ccncc1N(C)C(=O)c1cc(SCCCC(=O)O)cc(C(F)(F)F)c1 [Example 239, 4-(3-{[4-(4-Fluoro-2-methoxy-phenyl)-pyridin-3-yl]-methyl-carbamoyl}-5-trifluoromethyl-phenylsulfanyl)-butyric acid] | 6.29 |
| COc1ccc(-c2ccncc2N(C)C(=O)c2cc(C(F)(F)F)cc(C(F)(F)F)c2)c(C)c1 [Example 27, N-[4-(4-Methoxy-2-methyl-phenyl)-pyridin-3-yl]-N-methyl-3,5-bis-trifluoromethyl-benzamide] | 5.98 |
| Cc1ccccc1-c1ccncc1N(C)C(=O)c1cc([N+](=O)[O-])cc(C(F)(F)F)c1 [Example 184, N-Methyl-3-nitro-N-(4-o-tolylpyridin-3-yl)-5-(trifluoromethyl)benzamide] | 7.82 |
| COC(=O)CN(C(=O)c1cc(C(F)(F)F)cc(C(F)(F)F)c1)c1cnccc1-c1ccccc1Cl [Example 88, {(3,5-Bis-trifluoromethyl-benzoyl)-[4-(2-chloro-phenyl)-pyridin-3-yl]-amino}-acetic acid methyl ester] | 7.18 |
| Cc1ccccc1-c1ccncc1N(C)C(=O)c1cc(F)cc(F)c1 [Example 9, 3,5-Difluoro-N-methyl-N-(4-o-tolyl-pyridin-3-yl)-benzamide] | 5.91 |
| COc1cc(F)ccc1-c1ccncc1N(CC(F)(F)F)C(=O)c1cc(C(F)(F)F)cc(S(=O)(=O)N(C)C)c1 [Example 133, 3-Dimethylsulfamoyl-N-[4-(4-fluoro-2-methoxy-phenyl)-pyridin-3-yl]-N-(2,2,2-trifluoro-ethyl)-5-trifluoromethyl-benzamide] | 7.41 |
| COc1cc(-c2ccncc2N(C)C(=O)c2cc(C(F)(F)F)cc(S(C)(=O)=O)c2)c(F)cc1F [Example 284, N-[4-(2,4-Difluoro-5-methoxy-phenyl)-pyridin-3-yl]-3-methanesulfonyl-N-methyl-5-trifluoromethyl-benzamide] | 6.45 |
| CCc1cc(-c2ccccc2C)c(N(C)C(=O)c2cc(C(F)(F)F)cc(C(F)(F)F)c2)cn1 [Example 220, N-(6-Ethyl-4-o-tolyl-pyridin-3-yl)-N-methyl-3,5-bis-trifluoromethyl-benzamide] | 5.70 |
| CN(C(=O)c1cc(Br)cc(C(F)(F)F)c1)c1cnccc1-c1ccccc1Cl [Example 74, 3-Bromo-N-[4-(2-chloro-phenyl)-pyridin-3-yl]-N-methyl-5-trifluoromethyl-benzamide] | 7.47 |
| CN(C(=O)c1cc(C(F)(F)F)cc(C(F)(F)F)c1)c1cnccc1-c1ccc(F)cc1OCc1ccccc1 [Example 43, N-[4-(2-Benzyloxy-4-fluoro-phenyl)-pyridin-3-yl]-N-methyl-3,5-bis-trifluoromethyl-benzamide] | 5.69 |
| Cc1cc(-c2ccccc2C)c(N(C)C(=O)c2cc(C(F)(F)F)cc(C(F)(F)F)c2)cn1 [Example 127, N-Methyl-N-(6-methyl-4-o-tolyl-pyridin-3-yl)-3,5-bis-trifluoromethyl-benzamide] | 7.12 |
| Cc1ccccc1-c1ccncc1N(C)C(=O)c1cc(Cl)nc(C(F)(F)F)c1 [Example 171, 2-Chloro-N-methyl-N-(4-o-tolyl-pyridin-3-yl)-6-trifluoromethyl-isonicotinamide] | 7.25 |
| O=C(c1cc(C(F)(F)F)cc(C(F)(F)F)c1)N(CC1CC1)c1cnccc1-c1ccccc1Cl [Example 86, N-[4-(2-Chloro-phenyl)-pyridin-3-yl]-N-cyclopropylmethyl-3,5-bis-trifluoromethyl-benzamide] | 6.57 |
| CN(C(=O)c1cc(C(F)(F)F)cc(C(F)(F)F)c1)c1cnccc1-c1ccc(F)cc1F [Example 37, N-[4-(2,4-Difluoro-phenyl)-pyridin-3-yl]-N-methyl-3,5-bis-trifluoromethyl-benzamide] | 7.40 |
| Cc1ccccc1-c1ccncc1N(C)C(=O)c1cc(Cl)cc(C(F)(F)F)c1 [Example 109, 3-Chloro-N-methyl-N-(4-o-tolyl-pyridin-3-yl)-5-trifluoromethyl-benzamide] | 7.66 |
| Cc1ccc(F)cc1-c1ccncc1N(C)C(=O)c1cc(C(F)(F)F)cc(S(C)(=O)=O)c1 [Example 276, N-[4-(5-Fluoro-2-methyl-phenyl)-pyridin-3-yl]-3-methanesulfonyl-N-methyl-5-trifluoromethyl-benzamide] | 6.79 |
| COc1cc(F)ccc1-c1ccncc1N(C)C(=O)c1cc(SCCNC(=O)OC(C)(C)C)cc(C(F)(F)F)c1 [Example 234, [2-(3-{[4-(4-Fluoro-2-methoxy-phenyl)-pyridin-3-yl]-methyl-carbamoyl}-5-trifluoromethyl-phenylsulfanyl)-ethyl]-carbamic acid tert-butyl ester] | 6.39 |
| Cc1ccccc1-c1cc(Cl)ncc1N(C)C(=O)c1cc(C(F)(F)F)cc(C(F)(F)F)c1 [Example 12, N-(6-Chloro-4-o-tolyl-pyridin-3-yl)-N-methyl-3,5-bis-trifluoromethyl-benzamide] | 6.46 |

| SMILES | pEC50 |
| --- | --- |
| Cc1ccc(Cl)cc1-c1ccncc1N(C)C(=O)c1cc(C(F)(F)F)cc(C(F)(F)F)c1 [Example 82, N-[4-(5-Chloro-2-methyl-phenyl)-pyridin-3-yl]-N-methyl-3,5-bis-trifluoromethyl-benzamide] | 6.63 |
| COc1cc(F)ccc1-c1ccnc(Cl)c1N(C)C(=O)c1cc(C(F)(F)F)cc(S(C)(=O)=O)c1 [Example 212, N-[2-Chloro-4-(4-fluoro-2-methoxy-phenyl)-pyridin-3-yl]-3-methanesulfonyl-N-methyl-5-trifluoromethyl-benzamide] | 7.12 |
| CS(=O)(=O)c1cc(C(=O)N(CC(N)=O)c2cnccc2-c2ccccc2OC(F)(F)F)cc(C(F)(F)F)c1 [Example 319, N-Carbamoylmethyl-3-methanesulfonyl-N-[4-(2-trifluoromethoxy-phenyl)-pyridin-3-yl]-5-trifluoromethyl-benzamide] | 5.48 |
| Cc1ccccc1-c1ccncc1N(C)C(=O)c1ccc(C(F)(F)F)c(C(F)(F)F)c1 [Example 101, N-Methyl-N-(4-o-tolyl-pyridin-3-yl)-3,4-bis-trifluoromethyl-benzamide] | 6.53 |
| Cc1cc(C(=O)N(C)c2cnccc2-c2ccccc2C)cc(C(F)(F)F)c1 [Example 108, 3,N-Dimethyl-N-(4-o-tolyl-pyridin-3-yl)-5-trifluoromethyl-benzamide] | 7.15 |
| COc1ncccc1-c1ccncc1N(CC(F)(F)F)C(=O)c1cc(C(F)(F)F)nc(C(F)(F)F)c1 [Example 145, N-(2-Methoxy-[3,4′]bipyridinyl-3′-yl)-N-(2,2,2-trifluoro-ethyl)-2,6-bis-trifluoromethyl-isonicotinamide] | 7.52 |
| COc1cc(F)ccc1-c1ccncc1N(C)C(=O)c1cc(C(F)(F)F)cc(S(=O)(=O)CCO)c1 [Example 218, N-[4-(4-Fluoro-2-methoxy-phenyl)-pyridin-3-yl]-3-(2-hydroxy-ethanesulfonyl)-N-methyl-5-trifluoromethyl-benzamide] | 7.14 |
| COCCN(C(=O)c1cc(C(F)(F)F)cc(S(C)(=O)=O)c1)c1cnccc1-c1c(F)cccc1OC [Example 229, N-[4-(2-Fluoro-6-methoxy-phenyl)-pyridin-3-yl]-3-methanesulfonyl-N-(2-methoxy-ethyl)-5-trifluoromethyl-benzamide] | 7.57 |
| COc1cc(F)ccc1-c1ccncc1N(C)C(=O)c1cc(Cl)cc(OC(F)(F)F)c1 [Example 227, 3-Chloro-N-[4-(4-fluoro-2-methoxy-phenyl)-pyridin-3-yl]-N-methyl-5-trifluoromethoxy-benzamide] | 7.03 |
| CN(C(=O)c1cc(C(F)(F)F)cc(C(F)(F)F)c1)c1cnccc1-c1ccccc1F [Example 25, N-[4-(2-Fluoro-phenyl)-pyridin-3-yl]-N-methyl-3,5-bis-trifluoromethyl-benzamide] | 7.85 |
| COc1cc(F)ccc1-c1cc(C)ncc1N(C)C(=O)c1cc(SCCCCC(=O)O)cc(C(F)(F)F)c1 [Example 312, 5-(3-{[4-(4-Fluoro-2-methoxy-phenyl)-6-methyl-pyridin-3-yl]-methyl-carbamoyl}-5-trifluoromethyl-phenylsulfanyl)-pentanoic acid] | 5.62 |
| CCc1ccccc1-c1ccncc1N(C)C(=O)c1cc(C(F)(F)F)cc(C(F)(F)F)c1 [Example 168, N-[4-(2-Ethyl-phenyl)-pyridin-3-yl]-N-methyl-3,5-bis-trifluoromethyl-benzamide] | 7.39 |
| COc1cc(F)ccc1-c1ccncc1N(CC#N)C(=O)c1cc(C(F)(F)F)cc(S(C)(=O)=O)c1 [Example 228, N-Cyanomethyl-N-[4-(4-fluoro-2-methoxy-phenyl)-pyridin-3-yl]-3-methanesulfonyl-5-trifluoromethyl-benzamide] | 7.24 |
| Cc1ccc(-c2ccncc2N(C)C(=O)c2cc(C(F)(F)F)cc(C(F)(F)F)c2)c(C)c1 [Example 26, N-[4-(2,4-Dimethyl-phenyl)-pyridin-3-yl]-N-methyl-3,5-bis-trifluoromethyl-benzamide] | 6.16 |
| COC(=O)CN(C(=O)c1cc(C(F)(F)F)nc(C(F)(F)F)c1)c1cnccc1-c1cccnc1OC [Example 182, Methyl 2-(N-(2-methoxy-3,4′-bipyridin-3′-yl)-2,6-bis(trifluoromethyl)isonicotinamido)acetate] | 7.57 |
| Cc1c(F)cccc1-c1ccncc1N(C)C(=O)c1cc(C(F)(F)F)cc(S(C)(=O)=O)c1 [Example 295, N-[4-(3-Fluoro-2-methyl-phenyl)-pyridin-3-yl]-3-methanesulfonyl-N-methyl-5-trifluoromethyl-benzamide] | 6.35 |
| Cc1ccccc1-c1ccncc1N(C)C(=O)c1cccc(Cl)c1 [Example 3, N-Methyl-N-(4-o-tolyl-pyridin-3-yl)-3-chloro-benzamide] | 6.04 |
| COc1nccc(-c2ccncc2N(C)C(=O)c2cc(C(F)(F)F)cc(C(F)(F)F)c2)c1Cl [Example 50, N-(3′-Chloro-2′-methoxy-[4,4′]bipyridinyl-3-yl)-N-methyl-3,5-bis-trifluoromethyl-benzamide] | 6.17 |

— US10385022B2, “3-amino-pyridines as GPBAR1 agonists” (HOFFMANN-LA ROCHE INC., priority 2011, dated 2019)
